# Results from ChEMBL document CHEMBL1641570, “New hydroxystilbenoid derivatives endowed with neuroprotective activity and devoid of interference with estrogen and aryl hydrocarbon receptor-mediated transcription” (Bioorg Med Chem, 2011).
# How the values were obtained:
# Ishikawa [1] = experiment: Cytotoxicity against human Ishikawa cells by LDH release assay; type: cell-based
# [2] = Antagonist activity at estrogen receptor in human Ishikawa cells assessed as inhibition of estradiol-induced alkaline phosphatase expression at 1 uM after 72 hrs relative to ICI182780; type: cell-based
# estrogen receptor [3] = experiment: (§1) Agonist activity at estrogen receptor in human Ishikawa cells assessed as increase of estradiol-induced alkaline phosphatase expression at 1 uM after 72 hrs relative to estradiol; type: cell-based; details: Ishikawa cells, read-out: Activity
# Estrogen receptor beta [4] = target: T1, Estrogen receptor beta (Homo sapiens, UniProt Q92731); experiment: Antagonist activity at human ERbeta receptor expressed in human HEK293 cells co-expressing ERE assessed as inhibition of estradiol-induced of luciferase gene expression at 1 uM after 18 hrs relative to ICI182780; type: cell-based; details: hek293, 18 h
# Estrogen receptor beta [5] = target: T1, Estrogen receptor beta; experiment: Agonist activity at human ERbeta receptor expressed in human HEK293 cells co-expressing ERE assessed as increase of estradiol-induced luciferase gene expression at 1 uM after 18 hrs relative to estradiol; type: cell-based; details: for Activity: hek293, 18 h, 1 µM; for activity at 18 h, 1 µM: read-out: Activity
# Estrogen receptor [6] = target: T2, Estrogen receptor (Homo sapiens, UniProt P03372); experiment: Antagonist activity at human ERalpha receptor expressed in human MCF7:D5L cells co-expressing ERE assessed as inhibition of estradiol-induced of luciferase gene expression at 1 uM after 18 hrs relative to ICI182780; type: cell-based
# T2 sequence (P03372 whole entry): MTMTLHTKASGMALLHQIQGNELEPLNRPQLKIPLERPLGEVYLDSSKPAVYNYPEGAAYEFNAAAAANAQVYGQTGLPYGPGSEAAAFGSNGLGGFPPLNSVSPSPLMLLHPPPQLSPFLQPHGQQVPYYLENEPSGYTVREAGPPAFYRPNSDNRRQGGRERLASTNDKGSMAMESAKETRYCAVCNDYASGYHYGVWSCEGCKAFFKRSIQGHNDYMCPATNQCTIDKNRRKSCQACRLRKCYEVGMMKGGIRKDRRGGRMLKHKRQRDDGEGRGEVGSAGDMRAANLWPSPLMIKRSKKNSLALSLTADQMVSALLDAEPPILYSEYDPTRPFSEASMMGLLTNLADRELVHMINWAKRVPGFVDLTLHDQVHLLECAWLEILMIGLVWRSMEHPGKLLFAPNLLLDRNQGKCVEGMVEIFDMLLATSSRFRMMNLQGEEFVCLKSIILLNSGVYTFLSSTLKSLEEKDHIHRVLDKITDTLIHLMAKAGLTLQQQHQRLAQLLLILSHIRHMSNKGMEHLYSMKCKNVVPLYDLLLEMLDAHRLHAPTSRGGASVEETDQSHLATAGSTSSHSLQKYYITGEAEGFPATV
# estrogen receptor alpha = target: T3, estrogen receptor alpha (Homo sapiens, UniProt P03372); experiment: (§2) Partial agonist activity at human ERalpha receptor expressed in human MCF7:D5L cells co-expressing ERE assessed as increase of estradiol-induced luciferase gene expression at 1 uM after 18 hrs relative to estradiol; type: cell-based; details: read-out: Activity
# T3 sequence (P03372 whole entry): T2 sequence (P03372 whole entry)
# HT-22 [7] = experiment: Neuroprotective activity in mouse HT22 cells assessed as protection against glutamate-induced oxytosis after 24 hrs by MTT assay; type: functional, cell-based; details: HT-22, 24 h
# HT-22 [8] = experiment: Neuroprotective activity in mouse HT22 cells assessed as protection against glutamate-induced oxytosis after 24 hrs by MTT assay relative to resveratrol; type: functional
# [9] = Cytotoxicity against mouse HT22 cells assessed as cell viability at 1 uM after 3 days by LDH release assay relative to control; type: cell-based, HT-22; details: read-out: Activity
# [10] = target: Aryl hydrocarbon receptor (Mus musculus) (UniProt P30561); experiment: Activity at AhR expressed in mouse H1L1.1c2 cells co-expressing XRE assessed as increase of benzo[b]fluoranthene-induced luciferase gene expression at 1 uM after 72 hrs
# [11] = as §1; type: cell-based; details: ishikawa, 72 h, 1 µM
# Estrogen receptor [12] = target: T2, Estrogen receptor; experiment: as §2; type: cell-based; details: 18 h, 1 µM
# MCF7 = experiment: Antiproliferative activity against human stradiol-stimulated MCF7 cells at 1 uM after 96 hrs by MTT assay; type: cell-based; details: mcf7, 96 h
# [13] = target: Aryl hydrocarbon receptor (Mus musculus) (UniProt P30561); experiment: Activity at AhR expressed in mouse H1L1.1c2 cells co-expressing XRE assessed as induction luciferase gene expression at 1 uM after 72 hrs relative to benzo[b]fluoranthene
# Ishikawa [14] = experiment: Cytotoxicity against human Ishikawa cells at 1 uM by LDH release assay; type: cell-based
# [15] = target: Aryl hydrocarbon receptor (Mus musculus) (UniProt P30561); experiment: Activity at AhR expressed in mouse H1L1.1c2 cells co-expressing XRE assessed as induction luciferase gene expression at 10 nM after 72 hrs
# Aryl hydrocarbon receptor (Mus musculus), sequence (P30561 whole entry, looked up): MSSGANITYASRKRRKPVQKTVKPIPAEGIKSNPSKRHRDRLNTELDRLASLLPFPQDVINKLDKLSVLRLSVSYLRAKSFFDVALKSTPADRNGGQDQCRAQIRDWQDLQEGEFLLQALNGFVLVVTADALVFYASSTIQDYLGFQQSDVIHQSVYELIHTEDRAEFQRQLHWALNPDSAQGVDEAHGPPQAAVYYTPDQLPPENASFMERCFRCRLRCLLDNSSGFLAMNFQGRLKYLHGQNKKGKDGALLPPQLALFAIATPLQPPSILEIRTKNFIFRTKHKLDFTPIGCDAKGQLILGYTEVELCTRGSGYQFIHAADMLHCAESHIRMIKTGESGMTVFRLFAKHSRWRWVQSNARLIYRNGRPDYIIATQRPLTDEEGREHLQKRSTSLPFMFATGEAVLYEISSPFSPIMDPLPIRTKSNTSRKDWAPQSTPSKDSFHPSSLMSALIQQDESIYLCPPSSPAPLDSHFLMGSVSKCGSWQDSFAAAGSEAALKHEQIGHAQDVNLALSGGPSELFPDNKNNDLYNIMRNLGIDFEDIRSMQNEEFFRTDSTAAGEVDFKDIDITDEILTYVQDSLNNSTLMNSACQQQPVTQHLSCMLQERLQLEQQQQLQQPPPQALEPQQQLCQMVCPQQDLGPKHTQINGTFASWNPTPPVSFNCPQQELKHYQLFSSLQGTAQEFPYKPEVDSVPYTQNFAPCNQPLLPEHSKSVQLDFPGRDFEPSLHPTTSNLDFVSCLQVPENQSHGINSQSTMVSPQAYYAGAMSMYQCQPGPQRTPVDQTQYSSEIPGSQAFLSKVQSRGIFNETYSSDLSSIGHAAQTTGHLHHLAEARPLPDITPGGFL
# T1 sequence (Q92731 whole entry): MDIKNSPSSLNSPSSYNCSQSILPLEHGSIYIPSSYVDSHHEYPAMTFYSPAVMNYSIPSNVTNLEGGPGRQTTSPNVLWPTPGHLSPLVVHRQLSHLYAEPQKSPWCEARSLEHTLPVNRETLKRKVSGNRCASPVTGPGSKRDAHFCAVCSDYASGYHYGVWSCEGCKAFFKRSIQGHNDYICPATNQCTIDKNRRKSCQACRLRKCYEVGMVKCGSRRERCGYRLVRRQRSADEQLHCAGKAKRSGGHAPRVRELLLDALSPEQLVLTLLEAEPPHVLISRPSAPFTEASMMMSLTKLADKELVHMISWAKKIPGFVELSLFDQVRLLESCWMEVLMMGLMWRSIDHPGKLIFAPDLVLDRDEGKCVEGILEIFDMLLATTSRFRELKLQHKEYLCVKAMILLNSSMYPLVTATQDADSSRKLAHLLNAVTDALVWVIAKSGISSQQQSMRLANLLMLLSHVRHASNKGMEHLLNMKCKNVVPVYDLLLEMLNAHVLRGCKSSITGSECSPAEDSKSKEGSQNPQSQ
Structure (SMILES),Activity (Ishikawa [1]),Activity [2],"activity at 72 h, 1 µM (estrogen receptor [3])",Activity (Estrogen receptor beta [4]),Activity (Estrogen receptor beta [5]),Activity (Estrogen receptor [6]),"activity at 18 h, 1 µM (estrogen receptor alpha)",EC50 (HT-22 [7]),Ratio EC50 (HT-22 [8]),"percent cytotoxicity (LDH release relative to control) at 72 h, 1 µM [9]",Activity [10],Activity [11],Activity (Estrogen receptor [12]),Activity (MCF7),Ratio [13],"activity at 18 h, 1 µM (Estrogen receptor beta [5])",Activity (Ishikawa [14]),Activity [15]
CCC(CC)c1cc(/C=C/c2cc(O)cc(O)c2)ccc1O,Non-toxic,Not Active,38%,Not Active,Not Active,Not Active,65%,432 nM,11,-1%,1.7%,–,–,–,–,–,–,–
CCC(CC)c1cc(/C=C/c2cc(O)cc(O)c2)cc(C(CC)CC)c1O,Non-toxic,Not Active,–,Not Active,Not Active,Not Active,–,30 nM,156,-6.7%,3%,Not Active,Not Active,Non-toxic,1.9,–,–,–
CC(C)(C)c1cc(/C=C/c2cc(O)cc(O)c2)ccc1O,Non-toxic,Not Active,–,Not Active,Not Active,Not Active,–,484 nM,9.6,-6%,1.5%,Not Active,Not Active,–,–,–,–,–
CC(C)(C)c1cc(/C=C/c2cc(O)cc(O)c2)cc(C(C)(C)C)c1O,Non-toxic,Not Active,–,Not Active,Not Active,Not Active,–,45 nM,104,-6.7%,1.5%,Not Active,Not Active,Non-toxic,–,–,–,–
CCC(CC)c1cc(/C=C/C=C/c2cc(O)cc(O)c2)ccc1O,Non-toxic,Not Active,21%,Not Active,Not Active,Not Active,37%,79 nM,59,-5%,1.7%,–,–,–,–,–,–,–
CCC(CC)c1cc(/C=C/C=C/c2cc(O)cc(O)c2)cc(C(CC)CC)c1O,Non-toxic,Not Active,–,Not Active,Not Active,Not Active,–,12 nM,389,-6%,2.2%,Not Active,Not Active,Non-toxic,–,–,–,–
CC(C)(C)c1cc(/C=C/C=C/c2cc(O)cc(O)c2)ccc1O,Non-toxic,Not Active,–,Not Active,–,Not Active,34%,91 nM,51,-8.7%,1.6%,Not Active,–,–,–,18%,–,–
CC(C)(C)c1cc(/C=C/C=C/c2cc(O)cc(O)c2)cc(C(C)(C)C)c1O,Non-toxic,Not Active,–,Not Active,Not Active,Not Active,–,119 nM,39,-5.3%,1.6%,Not Active,Not Active,–,–,–,–,–
Oc1ccc(/C=C/C=C/c2cc(O)cc(O)c2)cc1,–,–,–,–,–,Not Active,–,3310 nM,1.4,8%,1.7%,–,Not Active,–,–,66%,Toxic,–
CC(C)(C)c1cc(/C=C/c2ccc(O)cc2)ccc1O,Non-toxic,Not Active,25%,Not Active,–,Not Active,49%,1060 nM,4.4,-5.3%,1.5%,–,–,–,–,19%,–,–
CC(C)(C)c1cc(/C=C/c2cc(C(C)(C)C)c(O)c(C(C)(C)C)c2)cc(C(C)(C)C)c1O,Non-toxic,Not Active,–,Not Active,Not Active,Not Active,–,399 nM,12,1.3%,1.4%,Not Active,Not Active,–,–,–,–,–
COc1c(C(C)(C)C)cc(/C=C/c2cc(O)cc(O)c2)cc1C(C)(C)C,–,–,–,–,–,–,–,621 nM,7.5,–,–,–,–,–,–,–,–,–
COc1c(C(C)(C)C)cc(/C=C/C=C/c2cc(O)cc(O)c2)cc1C(C)(C)C,–,–,–,–,–,–,–,410 nM,11,–,–,–,–,–,–,–,–,–
COc1cc(O)cc(/C=C/c2cc(C(C)(C)C)c(O)c(C(C)(C)C)c2)c1,–,–,–,–,–,–,–,258 nM,18,–,–,–,–,–,–,–,–,–
COc1c(C(C)(C)C)cc(/C=C/c2cc(C(C)(C)C)c(O)c(C(C)(C)C)c2)cc1C(C)(C)C,–,–,–,–,–,–,–,> 10000 nM,<1,–,–,–,–,–,–,–,–,–
c1ccc2c(c1)-c1cccc3c1c-2cc1ccccc13 [BENZO[B]FLUORANTHENE],–,–,–,–,–,–,–,–,–,–,–,–,–,–,–,–,–,13.1%
Oc1ccc(/C=C/c2cc(O)cc(O)c2)cc1 [RESVERATROL],Non-toxic,Not Active,–,–,–,–,–,4670 nM,–,4%,1.2%,Not Active,Not Active,–,–,–,–,–
